Earlier results as cited in patent US20060115424A1, “Combination therapy of oxaliplatin and radioactively doped particles treating cancer” (priority 2003, published 2006).

Test system: cancer
Conditions: Gray et al (2001) Annals of Oncology 12: 1711-1720

In the case of `O=c1[nH]c(=O)n([C@H]2C[C@H](O)[C@@H](CO)O2)cc1F` [floxuridine], the response rate is listed as 17.6% and the “time to disease progression” value is listed as 9.7 months.
